Reference: ChEMBL document CHEMBL1140148, “Structure-activity studies on a series of a 2-aminopyrimidine-containing histamine H4 receptor ligands” (J Med Chem, 2008)
In brackets after ≈: the same amount, converted by molar mass. Blank lines part the entries; values can stand above or below the compound they belong to. Activity calls are given as the source filed them. The calls are words filed in the database; no cut-off is given here.

Key:
Histamine H4 receptor [1] = biological target: T1, Histamine H4 receptor (Rattus norvegicus, UniProt Q91ZY1); assay: Agonist activity at rat histamine H4 receptor expressed in HEK293 cells coexpressing Gqi5 protein assessed as calcium flux by FLIPR assay; format: functional, cell-based
T1 sequence (Q91ZY1 whole entry): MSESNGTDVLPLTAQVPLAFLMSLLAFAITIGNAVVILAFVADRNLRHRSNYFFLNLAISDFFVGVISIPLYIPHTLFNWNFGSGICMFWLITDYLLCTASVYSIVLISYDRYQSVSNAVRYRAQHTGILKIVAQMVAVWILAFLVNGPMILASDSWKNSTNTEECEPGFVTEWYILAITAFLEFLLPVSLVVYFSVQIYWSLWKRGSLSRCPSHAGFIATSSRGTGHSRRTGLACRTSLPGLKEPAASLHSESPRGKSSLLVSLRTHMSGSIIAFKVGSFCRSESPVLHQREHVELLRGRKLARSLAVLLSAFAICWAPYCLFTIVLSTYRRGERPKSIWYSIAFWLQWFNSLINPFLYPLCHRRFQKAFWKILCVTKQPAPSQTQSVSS

Histamine H4 receptor [2] = biological target: T2, Histamine H4 receptor (Homo sapiens, UniProt Q9H3N8); assay: Agonist activity at human histamine H4 receptor expressed in HEK293 cells coexpressing Gqi5 protein assessed as calcium flux by FLIPR assay relative to histamine; format: functional, cell-based
Histamine H4 receptor [3] = biological target: T2, Histamine H4 receptor; assay: Agonist activity at human histamine H4 receptor expressed in HEK293 cells coexpressing Gqi5 protein assessed as calcium flux by FLIPR assay; format: functional, cell-based
Rattus norvegicus [4] = assay: Plasma concentration in rat at 30 umol/kg, ip; format: ADME, organism-based; details: in vivo
Rattus norvegicus [5] = assay: Plasma concentration in rat at 100 umol/kg, ip; format: ADME, organism-based; details: in vivo
[6] = Protein binding in ip dosed rat plasma; format: ADME, organism-based; details: read-out: PPB (converted)
Rattus norvegicus [7] = organism: Rattus norvegicus; assay: Antiinflammatory activity against carrageenan-induced hyperalgesia in rat assessed as increase in paw withdrawal by measuring plasma free fraction potency; format: functional, organism-based
[8] = Inhibition of adrenergic alpha2 receptor at 10 umol
[9] = biological target: 5-hydroxytryptamine receptor 1A (Homo sapiens) (UniProt P08908); assay: Inhibition of 5HT1A receptor at 10 umol
Sequence of 5-hydroxytryptamine receptor 1A (Homo sapiens) (P08908 whole entry): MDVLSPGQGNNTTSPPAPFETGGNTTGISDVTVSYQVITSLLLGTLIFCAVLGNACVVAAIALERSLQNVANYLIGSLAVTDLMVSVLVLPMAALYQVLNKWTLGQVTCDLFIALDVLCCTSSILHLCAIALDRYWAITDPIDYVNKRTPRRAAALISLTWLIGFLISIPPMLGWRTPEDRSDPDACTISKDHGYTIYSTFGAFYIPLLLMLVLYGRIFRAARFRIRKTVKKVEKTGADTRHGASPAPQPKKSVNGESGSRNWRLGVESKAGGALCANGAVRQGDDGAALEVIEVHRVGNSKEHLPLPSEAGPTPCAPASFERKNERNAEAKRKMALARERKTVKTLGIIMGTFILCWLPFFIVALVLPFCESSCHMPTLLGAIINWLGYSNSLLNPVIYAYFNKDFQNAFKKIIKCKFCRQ

[10] = biological target: 5-hydroxytryptamine receptor 1B (Homo sapiens) (UniProt P28222); assay: Inhibition of 5HT1B receptor at 10 umol
Sequence of 5-hydroxytryptamine receptor 1B (Homo sapiens) (P28222 whole entry): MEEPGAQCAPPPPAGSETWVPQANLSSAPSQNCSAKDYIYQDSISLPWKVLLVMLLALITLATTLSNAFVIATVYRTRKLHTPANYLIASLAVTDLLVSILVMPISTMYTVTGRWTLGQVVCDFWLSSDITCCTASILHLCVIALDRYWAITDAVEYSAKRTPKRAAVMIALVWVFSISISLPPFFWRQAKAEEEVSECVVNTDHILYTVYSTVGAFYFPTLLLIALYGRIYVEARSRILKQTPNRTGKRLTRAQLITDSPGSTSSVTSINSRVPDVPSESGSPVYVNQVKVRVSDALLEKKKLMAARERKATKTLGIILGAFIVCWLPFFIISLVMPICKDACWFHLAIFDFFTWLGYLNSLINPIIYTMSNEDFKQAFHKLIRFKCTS

[11] = biological target: T3, 5-hydroxytryptamine receptor 2A (Homo sapiens, UniProt P28223); assay: Inhibition of 5HT2A receptor at 10 umol
T3 sequence (P28223 whole entry): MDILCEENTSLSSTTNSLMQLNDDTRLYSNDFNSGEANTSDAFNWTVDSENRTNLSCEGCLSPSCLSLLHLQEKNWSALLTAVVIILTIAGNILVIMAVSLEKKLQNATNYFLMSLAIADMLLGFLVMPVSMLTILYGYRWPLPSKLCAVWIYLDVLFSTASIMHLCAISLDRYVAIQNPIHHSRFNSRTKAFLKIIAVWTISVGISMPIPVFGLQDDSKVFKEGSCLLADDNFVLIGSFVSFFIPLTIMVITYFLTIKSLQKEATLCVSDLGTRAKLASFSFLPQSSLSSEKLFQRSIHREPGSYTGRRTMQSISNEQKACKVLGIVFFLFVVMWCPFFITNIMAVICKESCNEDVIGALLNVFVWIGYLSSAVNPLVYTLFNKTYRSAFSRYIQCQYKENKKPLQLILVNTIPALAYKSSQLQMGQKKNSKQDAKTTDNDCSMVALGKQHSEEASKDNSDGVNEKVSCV

[12] = biological target: T4, 5-hydroxytryptamine receptor 7 (Homo sapiens, UniProt P34969); assay: Inhibition of 5HT7 receptor at 10 umol
T4 sequence (P34969 whole entry): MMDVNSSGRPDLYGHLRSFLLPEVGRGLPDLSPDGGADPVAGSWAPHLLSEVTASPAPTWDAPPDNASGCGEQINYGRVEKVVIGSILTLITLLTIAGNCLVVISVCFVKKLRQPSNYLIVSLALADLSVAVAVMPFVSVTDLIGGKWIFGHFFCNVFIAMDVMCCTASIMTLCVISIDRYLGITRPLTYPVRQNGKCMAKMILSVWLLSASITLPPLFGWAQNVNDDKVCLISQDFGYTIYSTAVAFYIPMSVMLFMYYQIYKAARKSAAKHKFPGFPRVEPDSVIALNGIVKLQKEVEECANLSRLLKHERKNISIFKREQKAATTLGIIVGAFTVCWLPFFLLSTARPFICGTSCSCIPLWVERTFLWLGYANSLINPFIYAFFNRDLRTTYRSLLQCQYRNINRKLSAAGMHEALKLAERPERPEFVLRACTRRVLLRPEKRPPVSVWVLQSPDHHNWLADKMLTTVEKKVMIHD

[13] = biological target: T5, 5-hydroxytryptamine receptor 1A (Homo sapiens, UniProt P08908); assay: Binding affinity to 5HT1A receptor
T5 sequence (P08908 whole entry): as the sequence (P08908 whole entry) above

[14] = biological target: 5-hydroxytryptamine receptor 1D (Homo sapiens, UniProt P28221); assay: Binding affinity to 5HT1D receptor
Sequence of 5-hydroxytryptamine receptor 1D (P28221 whole entry): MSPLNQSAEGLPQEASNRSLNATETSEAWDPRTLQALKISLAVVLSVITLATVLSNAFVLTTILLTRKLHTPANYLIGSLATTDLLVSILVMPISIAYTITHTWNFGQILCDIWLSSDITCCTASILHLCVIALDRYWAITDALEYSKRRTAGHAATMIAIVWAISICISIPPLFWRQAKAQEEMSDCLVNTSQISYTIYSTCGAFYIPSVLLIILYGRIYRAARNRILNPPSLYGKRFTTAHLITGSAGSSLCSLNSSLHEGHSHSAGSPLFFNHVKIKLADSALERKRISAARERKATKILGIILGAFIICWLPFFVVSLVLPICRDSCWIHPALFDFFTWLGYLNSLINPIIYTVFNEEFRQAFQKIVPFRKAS

[15] = biological target: T3, 5-hydroxytryptamine receptor 2A; assay: Binding affinity to 5HT2A receptor
[16] = biological target: 5-hydroxytryptamine receptor 2C (Homo sapiens, UniProt P28335); assay: Binding affinity to 5HT2C receptor
[17] = biological target: T4, 5-hydroxytryptamine receptor 7; assay: Binding affinity to 5HT7 receptor
[18] = biological target: Alpha-2A adrenergic receptor (Homo sapiens, UniProt P08913); assay: Binding affinity to adrenergic alpha2A receptor
[19] = biological target: Alpha-2C adrenergic receptor (Homo sapiens, UniProt P18825); assay: Binding affinity to adrenergic Alpha-2C receptor
Sequence of Alpha-2C adrenergic receptor (P18825 whole entry): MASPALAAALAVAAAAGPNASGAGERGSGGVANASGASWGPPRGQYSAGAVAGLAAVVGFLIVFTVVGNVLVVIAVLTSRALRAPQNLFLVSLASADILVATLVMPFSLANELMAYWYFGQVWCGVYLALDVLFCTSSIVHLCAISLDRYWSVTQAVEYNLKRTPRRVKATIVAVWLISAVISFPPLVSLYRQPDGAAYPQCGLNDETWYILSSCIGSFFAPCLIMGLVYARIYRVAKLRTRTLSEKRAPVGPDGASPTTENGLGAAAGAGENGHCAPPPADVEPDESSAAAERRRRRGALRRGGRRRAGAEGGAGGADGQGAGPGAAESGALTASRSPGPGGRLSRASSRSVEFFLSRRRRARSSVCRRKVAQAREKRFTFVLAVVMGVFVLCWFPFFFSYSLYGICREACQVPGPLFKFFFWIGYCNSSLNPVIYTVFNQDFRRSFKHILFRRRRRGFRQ

[20] = Binding affinity to opioid receptor
[21] = Binding affinity to cyclooxygenase
P2X purinoceptor 7 [22] = biological target: P2X purinoceptor 7 (Homo sapiens, UniProt Q99572); assay: Binding affinity to human P2X7 channel
P2X purinoceptor 7 [23] = biological target: P2X purinoceptor 7 (Mus musculus, UniProt Q9Z1M0); assay: Binding affinity to mouse P2X7 channel
[24] = Binding affinity to T-type voltage gated calcium channel
[25] = Binding affinity to NMDA receptor
Rattus norvegicus [26] = assay: Toxicity in rat assessed as effect on locomotor activity by rotarod test upto 300 umol/kg; format: organism-based; details: in vivo
[27] = Binding affinity to neuronal nicotine receptor
Cannabinoid receptor 1 = Cannabinoid receptor 1 (Homo sapiens, UniProt P21554); assay: Binding affinity to cannabinoid receptor
Sequence of Cannabinoid receptor 1 (P21554 whole entry): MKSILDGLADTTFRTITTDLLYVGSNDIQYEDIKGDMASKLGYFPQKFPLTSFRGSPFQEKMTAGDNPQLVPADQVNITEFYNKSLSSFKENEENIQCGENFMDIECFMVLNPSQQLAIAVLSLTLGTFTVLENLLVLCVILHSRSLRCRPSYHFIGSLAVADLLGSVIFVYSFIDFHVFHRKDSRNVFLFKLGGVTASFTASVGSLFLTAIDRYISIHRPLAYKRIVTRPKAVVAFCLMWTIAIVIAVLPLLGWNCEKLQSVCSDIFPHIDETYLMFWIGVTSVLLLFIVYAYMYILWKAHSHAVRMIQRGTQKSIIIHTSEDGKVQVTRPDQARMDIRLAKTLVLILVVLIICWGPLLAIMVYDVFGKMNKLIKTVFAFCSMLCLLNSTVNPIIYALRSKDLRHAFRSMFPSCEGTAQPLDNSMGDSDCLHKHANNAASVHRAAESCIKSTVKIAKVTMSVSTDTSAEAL

[28] = biological target: T5, 5-hydroxytryptamine receptor 1A; assay: Agonist activity at 5HT1A receptor expressed in CHO cells by GTPgammaS binding assay; format: functional, cell-based
[29] = biological target: 5-hydroxytryptamine receptor 1A (Homo sapiens) (UniProt P08908); assay: Agonist activity at 5HT1A receptor expressed in CHO cells by GTPgammaS binding assay relative to serotonin; format: functional, cell-based
[30] = Plasma concentration in rat at 30 umol/kg, ip after 30 mins; format: ADME, organism-based
[31] = Drug level in rat brain at 30 umol/kg, ip after 30 mins; format: ADME, organism-based; details: read-out: Drug uptake
[32] = Terminal volume of distribution in rat at 1 mg/kg, iv; format: ADME, organism-based; design: dose 1 mg/kg, route intravenous; details: in vivo, read-out: Vbeta
[33] = Terminal volume of distribution in mouse at 2.5 mg/kg, iv; format: ADME, organism-based; design: dose 2.5 mg/kg, route intravenous; details: in vivo, read-out: Vbeta
[34] = Plasma clearance in rat at 1 mg/kg, iv; format: ADME, organism-based; design: dose 1 mg/kg, route intravenous
[35] = Plasma clearance in mouse at 2.5 mg/kg, iv; format: ADME, organism-based; design: dose 2.5 mg/kg, route intravenous
[36] = Cmax in rat at 1 mg/kg, iv; format: ADME, organism-based; design: dose 1 mg/kg, route intravenous; details: in vivo
[37] = Cmax in mouse at 2.5 mg/kg, iv; format: ADME, organism-based; design: dose 2.5 mg/kg, route intravenous; details: in vivo
[38] = Tmax in rat at 1 mg/kg, po; format: ADME, organism-based; design: dose 1 mg/kg, route oral; details: in vivo
[39] = Tmax in mouse at 2.5 mg/kg, po; format: ADME, organism-based; design: dose 2.5 mg/kg, route oral; details: in vivo
[40] = Bioavailability in rat at 1 mg/kg, po; format: ADME, organism-based; details: in vivo
[41] = Bioavailability in mouse at 2.5 mg/kg, po; format: ADME, organism-based; details: in vivo
[42] = Cmax in rat at 1 mg/kg, po; format: ADME, organism-based; design: dose 1 mg/kg, route oral; details: in vivo
[43] = Cmax in mouse at 2.5 mg/kg, po; format: ADME, organism-based; design: dose 2.5 mg/kg, route oral; details: in vivo
[44] = Half life in mouse at 2.5 mg/kg, po; format: ADME, organism-based; design: dose 2.5 mg/kg, route oral; details: in vivo
Histamine H4 receptor [45] = biological target: Histamine H4 receptor (Mus musculus, UniProt Q91ZY2); assay: Agonist activity at mouse histamine H4 receptor expressed in HEK293 cells coexpressing Gqi5 protein assessed as calcium flux by FLIPR assay; format: functional, cell-based
Sequence of Histamine H4 receptor (Mus musculus, UniProt Q91ZY2) (Q91ZY2 whole entry): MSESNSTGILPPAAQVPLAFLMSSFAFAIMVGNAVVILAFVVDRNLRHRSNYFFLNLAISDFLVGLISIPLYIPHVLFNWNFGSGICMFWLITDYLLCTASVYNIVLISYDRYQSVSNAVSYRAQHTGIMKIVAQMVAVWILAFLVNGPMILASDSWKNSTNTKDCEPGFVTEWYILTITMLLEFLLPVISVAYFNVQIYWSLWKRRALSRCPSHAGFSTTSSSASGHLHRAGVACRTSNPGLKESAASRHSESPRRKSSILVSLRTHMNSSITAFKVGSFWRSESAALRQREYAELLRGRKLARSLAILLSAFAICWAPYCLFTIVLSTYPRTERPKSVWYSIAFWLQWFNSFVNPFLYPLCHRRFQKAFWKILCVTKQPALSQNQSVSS

[46] = biological target: Histamine H4 receptor (Mus musculus) (UniProt Q91ZY2); assay: Agonist activity at mouse histamine H4 receptor expressed in HEK293 cells coexpressing Gqi5 protein assessed as calcium flux by FLIPR assay relative to histamine; format: functional, cell-based
Sequence of Histamine H4 receptor (Mus musculus) (Q91ZY2 whole entry): as above

Histamine H4 receptor [47] = biological target: T1, Histamine H4 receptor; assay: Displacement of [3H]histamine from rat histamine H4 receptor expressed in HEK293 cells; format: cell-based
Histamine H3 receptor [48] = biological target: Histamine H3 receptor (Homo sapiens, UniProt Q9Y5N1); assay: Binding affinity to human histamine H3 receptor
Sequence of Histamine H3 receptor (Homo sapiens, UniProt Q9Y5N1) (Q9Y5N1 whole entry): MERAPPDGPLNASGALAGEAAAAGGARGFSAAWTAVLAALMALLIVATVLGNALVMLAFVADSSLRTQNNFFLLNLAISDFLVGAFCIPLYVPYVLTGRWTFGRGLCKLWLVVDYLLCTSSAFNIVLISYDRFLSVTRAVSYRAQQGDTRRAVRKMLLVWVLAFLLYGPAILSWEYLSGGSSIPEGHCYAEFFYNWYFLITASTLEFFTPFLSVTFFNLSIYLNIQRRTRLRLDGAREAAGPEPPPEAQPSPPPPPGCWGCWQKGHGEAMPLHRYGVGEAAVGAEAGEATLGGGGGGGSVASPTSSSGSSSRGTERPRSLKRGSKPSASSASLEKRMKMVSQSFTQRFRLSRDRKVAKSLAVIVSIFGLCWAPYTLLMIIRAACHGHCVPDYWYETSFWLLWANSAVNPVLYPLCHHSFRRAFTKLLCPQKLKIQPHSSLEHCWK

Histamine H3 receptor [49] = biological target: Histamine H3 receptor (Rattus norvegicus, UniProt Q9QYN8); assay: Binding affinity to rat histamine H3 receptor
Sequence of Histamine H3 receptor (Rattus norvegicus, UniProt Q9QYN8) (Q9QYN8 whole entry): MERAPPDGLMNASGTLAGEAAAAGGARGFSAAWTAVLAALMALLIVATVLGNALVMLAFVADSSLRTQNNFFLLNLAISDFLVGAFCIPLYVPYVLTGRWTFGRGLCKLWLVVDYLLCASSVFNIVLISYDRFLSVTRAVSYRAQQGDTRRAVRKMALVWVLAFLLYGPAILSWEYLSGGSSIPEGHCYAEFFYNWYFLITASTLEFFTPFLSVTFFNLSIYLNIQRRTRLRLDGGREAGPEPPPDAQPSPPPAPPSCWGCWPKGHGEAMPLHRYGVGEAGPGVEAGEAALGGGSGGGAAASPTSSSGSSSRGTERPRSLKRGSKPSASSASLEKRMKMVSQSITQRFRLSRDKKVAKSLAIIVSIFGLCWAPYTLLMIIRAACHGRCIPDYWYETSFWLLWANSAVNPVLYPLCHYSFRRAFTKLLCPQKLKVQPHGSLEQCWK

Mus musculus [50] = assay: Antiinflammatory activity in zymosan-induced peritonitis in sc dosed BALB/c mouse model assessed as decrease in myeloperoxidase activity in peritoneal lavage; format: functional
Mus musculus [51] = assay: Antiinflammatory activity in ip dosed CD1/ICR mouse assessed as reduction of clobenpropit-induced itching; format: functional
Mus musculus [52] = assay: Antiinflammatory activity in ip dosed CD1/ICR mouse assessed as reduction of clobenpropit-induced itching at 0.1 to 10 umol administered into scruff of neck; format: functional, organism-based
[53] = Plasma concentration in mouse at 25 umol/kg, ip after 30 mins; format: ADME, organism-based
Histamine H4 receptor [54] = biological target: T1, Histamine H4 receptor; assay: Agonist activity at rat histamine H4 receptor expressed in HEK293 cells coexpressing Gqi5 protein by GTPgammaS assay; format: functional, cell-based
[55] = Inhibition of histamine-induced shape change in BALB/c mouse BMMC by gated autofluorescence forward scatter; format: functional
Rattus norvegicus [56] = assay: Antiinflammatory activity against carrageenan-induced thermal hyperalgesia in rat assessed as increase in paw withdrawal at 30 umol/kg, ip relative to control; format: functional
Rattus norvegicus [57] = assay: Antiinflammatory activity against carrageenan-induced thermal hyperalgesia in rat assessed as increase in paw withdrawal at 100 umol/kg, ip relative to control; format: functional
Rattus norvegicus [58] = assay: Antiinflammatory activity against carrageenan-induced thermal hyperalgesia in ip dosed rat assessed as increase in paw withdrawal; format: functional
Rattus norvegicus [59] = assay: Plasma concentration in carrageenan-induced rat at 10 umol/kg, ip; format: ADME, organism-based; details: in vivo
[60] = biological target: Histamine H4 receptor (Rattus norvegicus) (UniProt Q91ZY1); assay: Agonist activity at rat histamine H4 receptor expressed in HEK293 cells coexpressing Gqi5 protein assessed as calcium flux by FLIPR assay relative to histamine; format: functional, cell-based
Sequence of Histamine H4 receptor (Rattus norvegicus) (Q91ZY1 whole entry): as the sequence (Q91ZY1 whole entry) above

[61] = biological target: Histamine H4 receptor (Rattus norvegicus) (UniProt Q91ZY1); details: HEK293
Histamine H4 receptor [62] = biological target: T2, Histamine H4 receptor; details: HEK293

EC50 (Histamine H4 receptor [1]): 490 nM | Efficacy (Histamine H4 receptor [2]): 56% | EC50 (Histamine H4 receptor [3]): 64.6 nM
Compound: CN1CCN(c2cc(NCc3ccccc3)nc(N)n2)CC1

Cp (Rattus norvegicus [4]): 836 ng/mL | Cp (Rattus norvegicus [5]): 2468 ng/mL | fraction unbound [6]: 0.33 | EC50 (Rattus norvegicus [7]): 0.2 µg/mL (≈ 0.679 µM) | inhibition [8]: 92% | inhibition [9]: 99% | inhibition [10]: 86% | inhibition [11]: 71% | inhibition [12]: 53% | Ki [13]: 42 nM | Ki [14]: 120 nM | Ki [15]: 4100 nM | Ki [16]: 3000 nM | Ki [17]: 5900 nM | Ki [18]: 74 nM | Ki [19]: 290 nM | IC50 [20]: > 10000 nM | IC50 [21]: > 100000 nM | IC50 (P2X purinoceptor 7 [22]): > 100000 nM | IC50 (P2X purinoceptor 7 [23]): > 100000 nM | IC50 [24]: > 10000 nM | IC50 [25]: > 100000 nM | Ki [27]: 100000 nM | Ki (Cannabinoid receptor 1): > 10000 nM | EC50 [28]: 1620 nM | Efficacy [29]: 92% | concentration at 0.5 h [30]: 600 ng/mL | concentration at 0.5 h [31]: 12100 ng/g | EC50 (Histamine H4 receptor [1]): 58.9 nM | Vd [32]: 7.1 L/kg | Vd [33]: 3.9 L/kg | clearance [34]: 172 mL/min/kg | clearance [35]: 255 mL/min/kg | Cmax [36]: 160 ng/mL | Cmax [37]: 570 ng/mL | Tmax [38]: 24 min | Tmax [39]: 15 min | bioavailability [40]: 31% | bioavailability [41]: 41% | Cmax [42]: 32 ng/mL | Cmax [43]: 92 ng/mL | half-life [44]: 36 min | EC50 (Histamine H4 receptor [45]): 123 nM | Efficacy [46]: 54% | Ki (Histamine H4 receptor [47]): 275 nM | Ki (Histamine H3 receptor [48]): 1290 nM | Ki (Histamine H3 receptor [49]): 245 nM | concentration at 0.5 h [53]: 1150 ng/mL | EC50 (Histamine H4 receptor [54]): 4680 nM | Cp (Rattus norvegicus [59]): 212 ng/mL
Compound: CN1CCN(c2cc(-c3ccc(C#N)cc3)nc(N)n2)CC1
Activity (Rattus norvegicus [26]): Non-toxic | ED50 (Mus musculus [50]): 64 µmol/kg | ED50 (Mus musculus [51]): 34 µmol/kg | Activity (Mus musculus [52]): inactive | pKb [55]: 6.56 | Activity (Rattus norvegicus [56]): 36% | Activity (Rattus norvegicus [57]): 100% | ED50 (Rattus norvegicus [58]): 32 µmol/kg

Compound: CN1CCN(c2cc(C(C)(C)C)nc(Cl)n2)CC1
EC50 (Histamine H4 receptor [1]): 8710 nM | Efficacy [60]: 75% | Efficacy (Histamine H4 receptor [2]): 42% | EC50 (Histamine H4 receptor [3]): 4900 nM

EC50 (Histamine H4 receptor [1]): 7940 nM | Efficacy [60]: 56% | Efficacy (Histamine H4 receptor [2]): 31% | EC50 (Histamine H4 receptor [3]): 2510 nM
Compound: CN1CCN(c2cc(-n3ccnc3)nc(N)n2)CC1

pKb [61]: 5.72 | pKb (Histamine H4 receptor [62]): 6.79
Compound: CN1CCN(c2cc(-c3ccccc3-c3ccccc3)nc(N)n2)CC1

pKb [61]: 5.14 | pKb (Histamine H4 receptor [62]): 5.05
Compound: CN1CCN(c2cc(N)cc(-c3ccc(C#N)cc3)n2)CC1
